Structures can show the parent of a compound that is named as a salt.
Tests used:
[1] = Metabolic study of TW01003 in a rat after i.v. administration (plasma, enzymatic treatment, HPLC); format: in vivo
Description: Single-dose TW01003 in a solution (1 mL) containing a 9 : 1 (v/v) ratio of vehicle V : 10% Na2CO3(aq) was used for animal studies in pig or in male Wistar rats. For metabolic studies, the TW01003 test solution was administered intravenously (7 mg/kg, n = 1) to the tail vein or orally (36 mg/kg, n = 1) by a feeding tube. For pharmacokinetic studies, the test solution was administered intravenously to the tail vein of Wistar rats (2.0 mg/kg, 1 mL, n = 6). The rats were put under a heating lamp to maintain body temperatures at 37°C throughout the experiment. All procedures involving the use of animals were approved by the Institutional Animal Care and Use Committee of Taipei Medical University. Blood samples (0.5 mL) were withdrawn from the carotid artery of rats at time intervals of 5, 15, 30, 45, 60, 90, 120, 180, and 240 min. Heparin sodium (25 IU/mL in 0.3 mL of saline) was added, and the blood samples were centrifuged (5,585 g) at 4°C for 8 min. The plasma was frozen immediately and kept at −78°C until analysis. The plasma sample (150 μL) was mixed with a sulfatase solution (200 IU/mL, 50 μL) at 37°C for 2 h. The plasma sample (150 μL) mixed with 50 μL of a buffer solution (pH 5.0) was used for the control group. The internal standard solution was then added, and the solution was centrifuged (5,585 g) for 10 min. The supernatant was concentrated to dryness with nitrogen gas. […]

[2] = Pharmacokinetics of TW01003 and TW01003 sulfate after i.v. administration of TW01003 in Wistar rats; format: in vivo, rat; details: for Cmax / MRT inf / Vd / clearance / half-life: male, rat, iv; for Cmax / MRT inf / Vd / clearance / half-life / AUMCINF / AUCINF / AUCall: plasma, i.v. TW01003 2.0 mg/kg; for Cmax / MRT inf / Vd / clearance / half-life / AUMCINF: n = 6, mean ± SD; for AUCINF: n = 6, time 0 to infinite; for AUCINF / AUCall: mean ± SD; for AUCall: n = 6, time 0 to last sampling time
Description: Single-dose TW01003 in a solution (1 mL) containing a 9 : 1 (v/v) ratio of vehicle V : 10% Na2CO3(aq) was used for animal studies in pig or in male Wistar rats. For metabolic studies, the TW01003 test solution was administered intravenously (7 mg/kg, n = 1) to the tail vein or orally (36 mg/kg, n = 1) by a feeding tube. For pharmacokinetic studies, the test solution was administered intravenously to the tail vein of Wistar rats (2.0 mg/kg, 1 mL, n = 6). The rats were put under a heating lamp to maintain body temperatures at 37°C throughout the experiment. All procedures involving the use of animals were approved by the Institutional Animal Care and Use Committee of Taipei Medical University.
Blood samples (0.5 mL) were withdrawn from the carotid artery of rats at time intervals of 5, 15, 30, 45, 60, 90, 120, 180, and 240 min. Heparin sodium (25 IU/mL in 0.3 mL of saline) was added, and the blood samples were centrifuged (5,585 g) at 4°C for 8 min. The plasma was frozen immediately and kept at −78°C until analysis. The plasma sample (150 μL) was mixed with a sulfatase solution (200 IU/mL, 50 μL) at 37°C for 2 h. The plasma sample (150 μL) mixed with 50 μL of a buffer solution (pH 5.0) was used for the control group. The internal standard solution was then added, and the solution was centrifuged (5,585 g) for 10 min. The supernatant was concentrated to dryness with nitrogen gas. The D5W vehicle (200 μL) was then added to the residue, and the solution was subjected to HPLC analysis.
We established the plasma concentration-time profile. The area under the plasma concentration-time profile (AUC) and other pharmacokinetic parameters (peak concentration: C max; time to reach C max: T max; area under the moment curve: AUMC; volume of distribution: V D) were calculated using the log-linear trapezoidal rule. […] Terminal half-life (t 1/2) was compartment model-independently estimated. Data analysis was performed using Microsoft Excel, and data were represented as mean ± standard deviation (SD) for n experiments. Treatment differences were evaluated by the paired t-test.

[3] = Identification of TW01003 metabolites in pig urine after i.v. administration (HPLC, sulfatase treatment); format: in vivo; details: i.v. TW01003 200 mg, urine 60 min after dosing
Text: Crossbred 3-4-month-old pigs weighing 40–50 kg, obtained from the Animal Technology Institute, Taiwan (Miaoli, Taiwan), were used in a preliminary metabolic study for establishing the HPLC analytical method for the identification of TW01003 and its metabolites. The phase II conjugate TW01003 sulfate was first isolated from pig urine as an authentic sample for analysis. Male Wistar rats (200–250 g) for pharmacokinetic studies were purchased from the Laboratory Animal Center of National Taiwan University (Taipei, Taiwan). The animals were pathogen free and allowed to acclimate to the environmentally controlled quarters (24 ± 1°C and 12 : 12 h light-dark cycle) for at least 5 days before the experiments. Animal studies were conducted in accordance with the Guide for the Care and Use of Laboratory Animals.
In order to establish a feasible analytical method for the identification of TW01003 metabolites in a biological system, a test solution containing 200 mg of TW01003 was first injected into a 40–50 kg pig. Fresh urine (1 mL) was collected 60 min after dosing, filtered through a 0.22 μm Millipore filter, and subjected to HPLC analysis. Typical HPLC chromatograms of urine sample of untreated pig (Figure 2(a)), urine samples upon i.v. dosing of TW01003 (Figure 2(b)), and urine samples after sulfatase treatment (Figure 2(c)) are depicted.

[4] = Preliminary pharmacokinetic study, oral administration to rats; format: in vivo; details: unpublished data
[5] = test system: vascular endothelial growth factor- (VEGF-) induced angiogenesis; test: Matrigel with VEGF-induced angiogenesis after oral treatment in mice; format: in vivo; details: oral TW01003 3 mg/kg, unpublished data
[6] = test system: 60 human disease-oriented cancer cell panel; parameters: method as in PMID 23567646; details: cited from earlier work

## O=c1[nH]/c(=C\c2ccc(OS(=O)(=O)O)cn2)c(=O)[nH]/c1=C\c1ccccc1 [TW01003 sulfate]
[1]; Wistar rat, i.v. TW01003 6.7 mg/kg, n = 1
  metabolite in rat plasma after i.v. administration: major metabolite
[2]; i.v. TW01003, n = 6
  clearance rate relative to TW01003: 2.3 times lower
  residence time (MRTINF) relative to TW01003: seven times longer
  systemic exposure (AUCINF) relative to TW01003: 2.5 times higher
  volume of distribution relative to TW01003: three times higher
[2]
  Cmax: 1310 ± 640 ng/mL
  MRT inf: 1.44 ± 0.33 h
  Vd: 4.43 ± 1.52 L/kg
  clearance: 51.3 mL/min/kg
  half-life: 1.31 ± 0.22 h
  AUMCINF: 1.01 ± 0.36 h∗h∗μg/mL
  AUCINF: 0.71 ± 0.25 h∗μg/mL
  AUCall: 0.52 ± 0.20 h∗μg/mL
[3]
  metabolite found in pig urine: major metabolite

## O=c1[nH]/c(=C/c2ccc(O)cn2)c(=O)[nH]/c1=C/c1ccccc1 [TW01003, (3E,6E)-3-Benzylidene-6-[(5-hydroxypyridin-2-yl)methylene]piperazine-2,5-dione]
[1]; rat, i.v. 6.7 mg/kg or oral 36.0 mg/kg, regardless of administration method
  clearance in words: cleared fairly rapidly
[4]
  oral fraction absorbed: 1.72%
[2]
  Cmax: 2200 ± 250 ng/mL
  MRT inf: 0.2 ± 0.06 h
  Vd: 1.41 ± 0.41 L/kg
  clearance: 118 mL/min/kg
  half-life: 0.76 ± 0.14 h
  AUMCINF: 0.06 ± 0.02 h∗h∗μg/mL
  AUCINF: 0.29 ± 0.04 h∗μg/mL
  AUCall: 0.28 ± 0.04 h∗μg/mL
[5]
  hemoglobin count of the matrigel reduced to: < 1%
[6]
  antitumor activity in words: broad spectrum of antitumor activities

Source: paper PMC4016869, “In Search of the Active Metabolites of an Anticancer Piperazinedione, TW01003, in Rats” (BioMed Research International, 2014)
